Measurements taken from patent US12540171B2, “Compositions and methods for treating ocular disease” (Asclepix Therapeutics, Inc., priority 2019, dated 2026).
No end group written: not given here.

Columns and labels:
[1] = Gel formation and persistence in the vitreous after intravitreal injection
Method: In FIG. 3, AXT107 was injected into the vitreous of Dutch-Belted rabbits. […] The retina with the optic nerve is visible in the back of the eye.
In FIG. 7, AXT107 was injected into the vitreous of Dutch-Belted rabbits in a PK toxicology study.

[2] = Drug levels in the retina after intravitreal injection, LC/MS/MS; type: in vivo, Dutch-Belted rabbits; details: 225, 271, and 315 days after a single injection
Method: The rabbits were then sacrificed at various time points, and the various ocular tissues were separated. The drug levels in the retina were measured by Liquid chromatography-mass spectrometry (LC/MS/MS). The drug levels were plotted as ng/g. The Kd for binding of AXT107 to its integrin targets is 1-2 nM.

For LRRFSTAPFAFIDINDVINF [AXT107], the “gels in the vitreous at necropsy, PK toxicology study” value ([1]; Dutch-Belted rabbits, 6 Months after administration, all doses) was “visible in the vitreous at all doses”, the “effect of gel on the visual axis” value ([1]; rabbit eye, after intravitreal injection) was “does not block the visual axis” and the “time the gel stays in place without breaking apart or migrating” value ([1]; rabbit eye, doses of 100 μg, 250 μg, 500 μg, and 1000 μg) was 15 months. For the same sequence, the “release of peptide from gel” value ([1]; rabbit vitreous) was “released the peptide in a sustained manner” and the “AXT107 level in the retina” value [2] was “significant levels”.
